Values of other authors in patent publication US7659260B2, “Tamponade compositions and methods for retinal repair” (priority 2005, dated 2010).

Key:
[1] = reportedly; unless ingested in very large amounts
[2] = at 25° C.

- relative density [2]: 1.1044
SMILES: [2H]O[2H] [Heavy water, deuterium-containing heavy water (D2O)]
- toxicity [1]: non-toxic, unless ingested in very large amounts
